In one data set the test system is human ABCB11 mRNA. The data set can be described thus: ASO treatment of primary human hepatocytes (PHH), ABCB11 mRNA by RT-qPCR normalized to B2M. The format is cell-based. The arrangement: ABCB11 mRNA, dose titration: unit of the concentration uncertain. The following applies: for ABCB11 mRNA expression, dose response / ABCB11 mRNA, dose titration: PHHs; for ABCB11 mRNA expression, dose response: Day 4 after ASO treatment (FIG. 5A); for ABCB11 mRNA, dose titration: CO-3986 and CO-4529 tested at 2.5 (unit uncertain), 5 μM, and 10 μM; for ABCB11 mRNA FC (5 μM ASO vs. UNT) / ABCB11 FC mRNA (5 μM ASO vs. untreated): primary human hepatocytes; for ABCB11 mRNA FC (5 μM ASO vs. UNT): normalized to untreated PHHs (UNT); for ABCB11 FC mRNA (5 μM ASO vs. untreated): 5 μM ASO with PO-modifications, normalized to untreated hepatocytes. The essentials:
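Plated primary human hepatocytes were treated 4 h post-thaw with ASO (e.g., 1.25–10 μM; initial screen 5 μM) in medium containing 0.3 mg/ml Matrigel for 72 hrs. Total RNA was reverse-transcribed and ABCB11 mRNA measured by Taqman RT-qPCR, normalized to B2M, with fold change versus untreated PHHs.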

For another data set, the system named is CYP7A1 mRNA. As to the kind of experiment: ASO treatment of primary human hepatocytes (PHH), CYP7A1 mRNA by RT-qPCR normalized to B2M. The format is cell-based. The following applies: for expression of CYP7A1 mRNA, dose response: PHHs (FIG. 3B); for CYP7A1 mRNA levels, dose response: PHHs, Day 4, relative to B2M (FIG. 5B). As for the experimental part: Primary human hepatocytes (PHH) were thawed using Lonza Human Cryopreserved Hepatocyte Thawing Medium and plated in 96-well collagen-coated plates (5.5-6.0×10^4 cells per well). Four hours later, the media was replaced with sterile-filtered QualGro™ Hepatocyte Culture Medium (BioIVT) containing antibiotic supplement, 0.3 mg/ml Matrigel® matrix (Corning®), and ASO at the desired concentration (e.g., 1.25 μM, 2.5 μM, 5 μM, or 10 μM). […] Plates were frozen at-80° C. during cell lysis. After thawing, total RNA was isolated using the Qiagen RNEasy kit as instructed by manufacturer. cDNA (random-primed) was synthesized from 10 μl of RNA using the LifeTech High Capacity cDNA Reverse Transcription kit. 2 μl of cDNA was used for reverse transcription-quantitative PCR (RT-qPCR) analyses using standard Taqman” reagents from Applied Biosystems™ to measure ABCB11 and CYP7A1 gene expression. Gene expression data was normalized to the housekeeper gene, beta-2-microglobulin (B2M).
ASOs targeting ABCB11 regRNA enhance bile acid efflux in vitro. Levels of cholesterol 7 alpha-hydroxylase (CYP7A1) mRNA (or the enzymatic activity of its protein) can be used to track changes in bile acid synthesis in the liver since the CYP7A1 protein is the first and rate-limiting step in the conversion of cholesterol to bile acids (see, e.g., Chiang and Ferrel (2020) Liver Res. 4 (2): 47-63). […] Conversely, when bile acid levels reach high levels, this gene is actively down regulated. These changes are mediated by farnesoid X receptor (FXR), a sensor of bile acid levels, and the master regulator of intracellular bile acid concentrations. CYP7A1 mRNA can therefore be used as a surrogate for monitoring changes in hepatic bile acids in response to ASO treatment. Accordingly, an ASO that successfully increases ABCB11 expression would be expected to promote increased bile acid efflux, thus reducing bile acid levels in the cell. In a wild-type (non-disease) setting, this reduction promotes a compensatory increase in CYP7A1 to restore normal levels.

Where [1] appears, read: PHHs treated for two days, collected Day 2 to Day 7, result on Day 4.

Strand notation (5' to 3'): a small letter for the sugar, then the base; units joined by * are phosphorothioate-linked, units joined directly phosphodiester-linked; [ ] holds rarer units or linkages, { } end groups; capitals alone tell only the bases. e = 2'-O-(2-methoxyethyl) (MOE); l = locked nucleic acid (LNA); [5mC] = 5-methylcytosine; d = 2'-deoxy (DNA)

Take “CO-4535: ASO targeting eRNA RR64 (RR64_v2) of human ABCB11 (antisense eT*eG*eG*e[5mC]*eG*eT*eT*eA*eT*eT*eA*eA*eT*eT*e[5mC]*eT*eA*e[5mC]*eA*eG)”: the “ABCB11 mRNA, time course” value in the data set on human ABCB11 mRNA (setting [1]) was “strong ABCB11 and CYP7A1 mRNA upregulation”. In the data set on human ABCB11 mRNA, the “ABCB11 mRNA expression, dose response” value is reported as “dose-responsive increase” and the “ABCB11 mRNA, dose titration” value is on record as “dose-dependent increase”. In the data set with CYP7A1 mRNA, the “expression of CYP7A1 mRNA, dose response” value is on record as “increased expression of CYP7A1 mRNA in a dose-dependent manner” and the “CYP7A1 mRNA levels, dose response” value is “dose-responsive increases”. Also, the “CYP7A1 mRNA, time course” value in the data set with CYP7A1 mRNA (setting [1]) was “strong ABCB11 and CYP7A1 mRNA upregulation”.
Consider “CO-4556: ASO targeting eRNA RR74 (RR74_v1) of human ABCB11 (antisense eG*eA*eA*eG*eG*eA*e[5mC]*eA*e[5mC]*eA*eA*eT*eT*eT*e[5mC]*eT*eG*eT*eA*eG)”, for which, in the data set on human ABCB11 mRNA, the “ABCB11 mRNA expression, dose response” value was “dose-responsive increase” and the “ABCB11 mRNA, dose titration” value is given as “dose-dependent increase”. In the data set with CYP7A1 mRNA, the “expression of CYP7A1 mRNA, dose response” value is “increased expression of CYP7A1 mRNA in a dose-dependent manner” and the “CYP7A1 mRNA levels, dose response” value was “dose-responsive increases”.
Regarding “CO-4513: ASO targeting a downstream regRNA from enhancer RR62_v2 (antisense eG*eT*eG*eA*eG*eG*e[5mC]*eA*eT*e[5mC]*eA*eG*eG*eT*eA*eA*eG*eT*eT*e[5mC])”, in the data set with human ABCB11 mRNA, the “ABCB11 mRNA expression, dose response” value is given as “dose-responsive increase” and the “ABCB11 mRNA FC (5 μM ASO vs. UNT)” value is listed as 1.122 fold change. The “CYP7A1 mRNA levels, dose response” value with CYP7A1 mRNA is listed as “dose-responsive increases”.
Take “CO-4524 (antisense e[5mC]*eA*eG*eA*eG*eA*eA*eA*e[5mC]*e[5mC]*eT*eA*eA*eA*eA*eT*eT*eG*eA*eG)”: the “ABCB11 mRNA FC (5 μM ASO vs. UNT)” value in the data set on human ABCB11 mRNA worked out at 1.243 fold change.
Take “CO-3994 (antisense e[5mC]*e[5mC]*e[5mC]*eA*e[5mC]*eT*e[5mC]*eT*eA*eG*eA*eT*eT*eG*e[5mC]*eA*eA*eG*e[5mC]*e[5mC])”: in the data set with human ABCB11 mRNA, the “ABCB11 mRNA FC (5 μM ASO vs. UNT)” value stood at 1.988 fold change.
Regarding “CO-11231 (antisense eG*eT*lGeG*eA*lGe[5mC]*eA*lAeA*e[5mC]*lTeA*eG*lGe[5mC]*eA*l[5mC]eT*eG)”, the “ABCB11 FC mRNA (5 μM ASO vs. untreated)” value with human ABCB11 mRNA was 1.85 fold change.
In the case of “CO-6676 (antisense eT*eA*eA*eA*eG*e[5mC]*eA*eA*eG*e[5mC]*eT*eG*eT*eG*eT*eG*eG*eA*eA*eG)”, the “ABCB11 mRNA FC (5 μM ASO vs. UNT)” value with human ABCB11 mRNA was 1.204 fold change.
On the same count and under the same terms, next, “CO-6981 (antisense eA*e[5mC]*eA*eG*eA*eA*eG*eT*eG*eA*eG*eG*e[5mC]*eA*eT*e[5mC]*eA*eG*eG*eT)”: 1.164 fold change.
For the substance “CO-11214 (antisense eG*eT*lGeG*lA*eG*l[5mC]*eAlA*eA*l[5mC]*eT*lAeG*lG*e[5mC]*lA*e[5mC]eT*eG)”, the “ABCB11 FC mRNA (5 μM ASO vs. untreated)” value in the data set with human ABCB11 mRNA came to 2.90 fold change.
Consider “CO-7169 (antisense eT*eT*eA*eT*eT*eT*eG*eG*e[5mC]*eG*eT*eT*eA*eT*eT*eA*eA*eT*eT*e[5mC])”, for which, in the data set on human ABCB11 mRNA, the “ABCB11 mRNA FC (5 μM ASO vs. UNT)” value is on record as 1.289 fold change.
Take “CO-6983 (antisense eA*eG*eA*eA*eG*eA*e[5mC]*eA*eG*eA*eA*eG*eT*eG*eA*eG*eG*e[5mC]*eA*eT)”: in the data set with human ABCB11 mRNA, the “ABCB11 mRNA FC (5 μM ASO vs. UNT)” value came out at 1.065 fold change.
Same read-out and setting: next, “CO-6985 (antisense eT*eG*eG*eA*eT*lG*dT*dA*lG*dA*dT*lG*dA*dA*lT*eG*eG*e[5mC]*eA*eA)”: 1.414 fold change.
Regarding “CO-11207 (antisense eT*eG*eTeT*eT*eTeG*e[5mC]*eTeT*eG*eGeT*e[5mC]*eAeA*eG*eAeG*eG)”, the “ABCB11 FC mRNA (5 μM ASO vs. untreated)” value in the data set on human ABCB11 mRNA is 0.91 fold change.
In the case of “CO-11223 (antisense eG*eT*lG*eGeAlGe[5mC]*eA*lA*eA*e[5mC]*lT*eA*eGlGe[5mC]eA*l[5mC]*eT*eG)”, the “ABCB11 FC mRNA (5 μM ASO vs. untreated)” value in the data set on human ABCB11 mRNA is recorded as 1.80 fold change.
Take “CO-7004 (antisense eG*eT*eG*eA*lG*eG*e[5mC]*eA*eT*l[5mC]*eA*eG*eG*eT*lA*eA*eG*eT*eT*e[5mC])”: the “ABCB11 mRNA FC (5 μM ASO vs. UNT)” value with human ABCB11 mRNA was 1.285 fold change.
On the same count and under the same terms, next, “CO-4487 (antisense eG*e[5mC]*eA*eA*eG*eG*eT*e[5mC]*e[5mC]*eA*eG*eG*eG*eT*eG*eT*eA*eT*eT*e[5mC])”: 1.052 fold change; “CO-7070 (e[5mC]*eA*eT*eT*lT*dA*dG*dA*lG*dA*d[5mC]*dA*lA*dA*dG*eA*lA*eT*e[5mC]*eG; antisense)”: 1.044 fold change; “CO-7028 (antisense eA*e[5mC]*e[5mC]*eG*eA*e[5mC]*eA*eG*eT*eG*eA*eG*e[5mC]*eT*eT*eA*eT*e[5mC]*eT*eG)”: 1.49 fold change.
Same read-out and setting: then “CO-7192 (eT*eG*eG*l[5mC]*eG*eT*eT*lA*eT*eT*eA*lA*eT*eT*e[5mC]*lT*eA*e[5mC]*eA*eG; antisense)”, with 1.591 fold change.
For “CO-7062 (eT*e[5mC]*lT*eG*lG*eA*lA*eA*lA*eT*lA*eA*lT*eG*l[5mC]*e[5mC]*lT*eT*eT*e[5mC]; antisense)”, in the data set on human ABCB11 mRNA, the “ABCB11 mRNA FC (5 μM ASO vs. UNT)” value turned out to be 1.218 fold change.
In the case of “CO-4026 (antisense e[5mC]*eT*eT*eG*eT*e[5mC]*e[5mC]*eA*eG*eT*eG*eT*eA*eA*eA*e[5mC]*eA*eA*e[5mC]*eG)”, the “ABCB11 mRNA FC (5 μM ASO vs. UNT)” value in the data set on human ABCB11 mRNA is recorded as 1.234 fold change.

(Values after patent US20250320496A1, “MODULATION OF ABCB11 GENE TRANSCRIPTION USING ANTISENSE OLIGONUCLEOTIDES TARGETING REGULATORY RNAS” (CAMP4 Therapeutics Corporation, priority 2022, published 2025).)
